# Assays:
# [1] = NOVARTIS: Cytotoxicity against human hepatocellular carcinoma cell line (Huh7); type: toxicity, cell-based, Huh-7; settings: Huh7 cells (hepatocellular carcinoma cell line)
# Plasmodium falciparum [2] = assay: NOVARTIS: Inhibition of Plasmodium falciparum 3D7 (drug-susceptible) proliferation in erythrocyte-based infection assay; type: functional, organism-based; settings: Plasmodium falciparum, 3D7
# Plasmodium falciparum [3] = assay: NOVARTIS: Inhibition of Plasmodium falciparum W2 (drug-resistant) proliferation in erythrocyte-based infection assay; type: functional, organism-based; settings: Plasmodium falciparum, W2; read-out: EC50
Compound,CC50 [1] [µM],EC50 (Plasmodium falciparum [2]) [µM],EC50 (Plasmodium falciparum [3]) [µM]
CCOc1ccc(NC(=O)c2ccc(F)c(S(=O)(=O)NC3CCCCCC3)c2)cc1,54.8,1.35,0.135
O=S(=O)(NCCCCNc1ccnc2cc(Cl)ccc12)c1ccc(F)cc1,> 10,0.341,0.713
COc1ccc(-c2nnc(NC(=O)CCN(CCc3ccc(OC)c(OC)c3)C(=O)c3cccc4ccccc34)s2)cc1,> 13.6,0.934,> 1.2
O=S(=O)(c1ccc(Cl)cc1)N1CCN(C(=S)NCC2CCCO2)CC1 (centres undefined),> 100,0.653,0.149
CCc1cc2c(Nc3ccncc3)ncnc2s1,> 100,2.5,2.94
COc1ccc(-c2noc(N3CCc4ccccc4C3)n2)cc1,> 10,0.2,0.125
O=C(C1CC1)n1cc(C(=O)C(F)(F)F)c2ccccc21,> 10,1.37,> 1.22
CCOC(=O)c1c(C)n(-c2ccccc2)c2ccc(OC(=O)c3ccccc3NC(=O)C(C)C)cc12,> 100,0.885,1.99
CCC(C)NC(=O)CN(c1cc(OC)ccc1OC)S(C)(=O)=O (centres undefined),> 10,0.438,0.349
C=CCNC(=O)c1cc(OCc2ccccc2)c(OCc2ccccc2)c(OCc2ccccc2)c1,> 100,10.8,9.18
CCCCN1C(=O)/C(=C2/Sc3ccccc3N2C)SC1=Nc1cc(C)ccc1C,> 10,> 0.581,> 0.175
CC(C)(C)CC(=O)NCc1ccc(OC2CCN(CC(c3ccccc3)c3ccccc3)CC2)cc1,> 10,1.16,< 0.00877
CCCC(=O)N(CCCC(C)Nc1cc(OC)cc2cccnc12)Cc1ccc(F)cc1 (centres undefined),> 10,0.385,0.0714
O=C(Nc1ccc(-n2cnnn2)cc1)C1CCN(Cc2ccc(OC(F)F)cc2)CC1,46.3,1.59,0.266
N=c1c2ccccc2nnn1-c1ccc(C(F)(F)F)cc1,> 100,0.392,0.575
CCN(CC)c1ccc(N=Cc2ccccc2[N+](=O)[O-])cc1,27.7,0.571,0.41
CCCCCN(C(=O)c1ccc(Br)cc1)C(CC)c1nc2ccccc2c(=O)n1-c1ccccc1OC (centres undefined),> 4.4,1.02,0.633
O=C1c2cc([N+](=O)[O-])ccc2-n2c1nc1ccccc1c2=O,> 10,0.148,0.101
O=C(NC(Cc1ccccc1)c1nnc(SCc2ccc(F)cc2)n1-c1ccc(Cl)cc1Cl)C1CCCCC1 (centres undefined),1.66,0.748,0.35
CC[n+]1c(C=Cc2ccc(OC)cc2)ccc2ccccc21,10.3,0.69,1.48
CCN(CC)Cc1ccc2c(NC(=O)c3ccc(C)s3)c(C(=O)OC)sc2n1,1.24,1.23,1.19
O=C(Nc1cc(C(F)(F)F)ccc1N1CCOCC1)C(Cl)(Cl)Cl,74.8,0.376,0.116
COc1ccc(CC(=O)N(CCCC(C)Nc2cc(OC)cc3cccnc23)Cc2ccc(OC)c(OC)c2)cc1 (centres undefined),> 10.8,1.2,0.666

Compound,CC50 [1] [µM],EC50 (Plasmodium falciparum [2]) [µM],EC50 (Plasmodium falciparum [3]) [µM]
CCc1ccc2[nH]c(=O)c(CN(CCN(C)C)C(=S)NCCCN(C)C)cc2c1,> 10,1.76,> 1.46
COc1ccc2c(c1OC)C(=O)N(c1ncc(C)s1)C2,> 10,> 1.25,> 1.08
Cc1ncc(CN2CCC(C(=O)Nc3ccc(-n4cccn4)cc3)CC2)s1,> 100,3.19,2.83
COc1ccc(-c2ncc([C@@H]3C[C@H]4CN(c5ccccc5)C(=O)[C@]45CCCN35)cn2)cc1,29.8,2.26,0.995
CCOc1ccc(C(=O)C(C)[n+]2cc(-c3ccc(OC)cc3)n3c2CCC3)cc1 (centres undefined),33.2,0.506,0.595
COc1ccc(N=Nc2nc3ccc(Br)cc3n2C)cc1,> 100,0.197,0.199
CCC(C)N(CCC(=O)N1CCN(Cc2ccccc2)CC1)C(=O)Nc1cccc(Cl)c1Cl (centres undefined),> 8.39,> 1.56,> 1.06
COc1cc(CNc2cc(OCCOc3ccc(Cl)cc3)cc(C(=O)NC3CCN(Cc4ccccc4)CC3)c2)ccc1OCc1ccccc1,> 12.1,0.902,> 1.25
Cc1ccc(NC(=O)c2c(I)cnn2C)cc1[N+](=O)[O-],> 100,0.192,0.28
COc1ccc2c(c1)C(=NN=C(N)N)c1cc(OC)ccc1-2,> 10,0.123,0.178
CCOc1ccc(OCc2nnc(S)n2N)cc1,> 10,> 1.25,> 0.752
Cc1cc(/C=C2\SC(=Nc3ccccc3)NC2=O)c(C)n1-c1cccc([N+](=O)[O-])c1,> 100,0.682,0.897
COc1ccc(C=CC(=O)Nc2ccc3nc(N4CCN(C)CC4)cc(C)c3c2)cc1OC,55.2,0.708,0.946
O=C(C1CCC1)N1CCN(c2ccccn2)CC1,> 10,> 1.25,> 0.918
COc1cc2c(c(OC)c1CN1CCN(c3ccccc3)CC1)C(=O)c1ccccc1C2=O,> 10,0.131,0.166
c1cc(C2=NCCN2)ccc1OCCCOc1ccc(C2=NCCN2)cc1,> 10,0.00558,0.0518
CC(Oc1cccc(Cl)c1)C(=O)N1CCc2ccccc21 (centres undefined),> 100,0.748,0.75
COc1ccc(Nc2nc(NN=Cc3cccc([N+](=O)[O-])c3OC)nc(Nc3ccc([N+](=O)[O-])cc3)n2)cc1,> 100,0.221,0.635
Cc1cccc(CN2CCC(CNC(=S)Nc3ccc4nc(N5CCN(C)CC5)cc(C)c4c3)CC2)c1,> 100,> 9.9,6.76
COc1cc2c(O[C@@H]3O[C@H](CO)[C@@H](O)[C@H](O)[C@H]3O)c3c(c(-c4ccc5c(c4)OCO5)c2cc1OC)C(=O)OC3,0.784,0.0743,0.12
O=[N+]([O-])c1cc(C(F)(F)F)ccc1N1CCCN(C(=S)Nc2cccc(C(F)(F)F)c2)CC1,55,0.149,0.13
COc1ccc(Nc2nc(NCc3ccco3)c3ccccc3n2)cc1,2.97,0.253,0.421
CCC(c1nc2ccccc2c(=O)n1-c1cccc(C)c1)N(Cc1ccccc1)C(=O)Nc1c(C(C)C)cccc1C(C)C (centres undefined),> 100,0.395,0.486

Compound,CC50 [1] [µM],EC50 (Plasmodium falciparum [2]) [µM],EC50 (Plasmodium falciparum [3]) [µM]
Nc1cc(OC(=O)c2ccccc2)nn1S(=O)(=O)c1ccc(Cl)cc1,> 10,> 1.25,0.923
CN(CCCNc1ccnc2cc(Cl)ccc12)C(=O)c1cccc(Cl)c1,7.34,0.269,0.202
CCN1CCN(c2cc(C)c(C#N)c3nc4ccccc4n23)CC1,> 100,0.798,1.51
NCCNC(=O)COC(c1cccnc1)c1ccccc1Cl (centres undefined),> 10,> 1.25,> 1.15
CC(C)CNC(=O)c1cnc(NCCCN2CCCC2)nc1NCC1CCCCC1,> 10,0.474,> 1.35
COc1ccc(C2(C(=O)NCc3ccccc3Cl)CCCC2)cc1OC,> 100,12,5.22
COc1ccc(-n2nc(C(=O)NCc3ccccc3OC)c3ccccc3c2=O)cc1,> 100,0.377,0.39
S=C(NCc1ccco1)NN=CC=NNC(=S)NCc1ccco1,> 10,0.121,0.113
Cc1ccc(Nc2nc(NN=Cc3ccc(-c4ccc(Cl)c([N+](=O)[O-])c4)o3)nc(N3CCOCC3)n2)c(Br)c1,> 10,> 1.06,1.32
COc1cc(C(=O)NC(C)C)ccc1OC1CCN(CC(c2ccccc2)c2ccccc2)CC1,> 100,0.0743,0.0236
CCOC(=O)NN=CC=NNC(=O)OCC,> 10,0.199,0.235
Fc1cccc2sc(Nc3nc(-c4ccccn4)cs3)nc12,24.7,0.321,0.0958
O=C(NCCCCNc1ccnc2cc(Cl)ccc12)c1ccc([N+](=O)[O-])cc1,> 10,0.486,0.565
CN(CCCNc1ccnc2cc(Cl)ccc12)C(=O)c1ccc(C(C)(C)C)cc1,3.89,0.0812,0.0465
CN(CCCNc1ccnc2cc(Cl)ccc12)S(=O)(=O)c1cc(Cl)ccc1Cl,> 12.2,0.398,0.251
COc1ccc2nc(C)cc(Nc3ccc(N4CCN(C)CC4)cc3)c2c1,7.33,0.0832,0.153
COc1ccc2nc(C)cc(Nc3ccc(Oc4ccc(Cl)cc4)c(Cl)c3)c2c1,9.34,0.171,0.571
Cc1ccc(N2C(=O)C3C(C2=O)C2(c4ccccc4)C(=O)C3(c3ccccc3)C(c3ccccc3)=C2c2ccccc2)cc1Br (centres undefined),> 10,1.44,1.41
C[N+](C)(C)c1nc(N2CCOCC2)nc(N(c2ccccc2)c2ccccc2)n1,> 10,0.0632,0.179
CCN1CCN(c2cc(C)c3cc(NC(=O)C=Cc4cccc(Cl)c4)ccc3n2)CC1,61.4,0.824,1.26
O=C(Nc1ccc(-c2nc3ccccc3[nH]2)cc1)c1cccc(C(=O)Nc2ccc(-c3nc4ccccc4[nH]3)cc2)n1,31.7,0.121,0.126
CCc1ccc(CN2CCC(O)(c3ccc4oc(C(=O)Nc5ccc6c(c5)OCO6)cc4c3)CC2)cc1,10.3,0.359,0.46

# From ChEMBL document CHEMBL1156829 (Proc Natl Acad Sci U S A, 2008)
